US20220242861A1, “IMIDAZOPYRIDINYL COMPOUNDS AND USE THEREOF FOR TREATMENT OF PROLIFERATIVE DISORDERS” (1ST Biotherapeutics, Inc., priority 2019, published 2022)

Legend:
recombinant human c-Kit = biological target: T1, recombinant human c-Kit (Homo sapiens, UniProt P10721); assay: c-Kit Kinase Assay (ADP-Glo); type: biochemical; settings: In vitro kinase activity
T1 construct: purchased Signalchem
Procedure: (§1) ADP-Glo assay kit was purchased from Promega. Magnesium chloride (MgCl2), ethylene glycol-bis(8-aminoethyl ether)-N,N,N′,N′-tetraacetic acid (EGTA), manganese (II) chloride (MnCl2), bovine serum albumin (BSA), 1,4-dithiothreitol (DTT) and dimethyl sulfoxide (DMSO) were purchased from Sigma-Aldrich. HEPES buffer was purchased from Gibco. c-Kit kinase and poly (4:1 Glu, Tyr) peptide were purchased from Signalchem.
(§2) c-Kit kinase activity was measured by Promega's ADP-Glo™ Assay. In this assay, 100ng of recombinant human c-Kit is incubated with 5 μL of compounds (0.5% DMSO), 5 μL of Poly (4:1 Glu, Tyr) peptide (50 ng/μl) and 5 μL of ATP (50 μM) in buffer (50 mM HEPES, pH7.5; 10 mM MgCl2; 1 mM EGTA; 0.05% BSA; 50μM DTT; 2mM MnCl2). The assay was started by incubating the reaction mixture in a 96-well plate at 30° C. for 120-min. After the incubation, 25 μL ADP-Glo reagent was added and the reaction was incubated at room temperature for 40-min to stop the reaction and degrade residual ATP. The ADP product was then converted to ATP by adding 50 μL per well of detection reagent. Luminescence was detected after 30-min room temperature incubation with the Molecular device I3X plate reader. The IC50 values were calculated from a series of percent inhibition values determined at a range of inhibitor concentration using software routines as implemented in the GraphPad Prism 8 software and Sigma Plot 13.0.

[1] = test system: K562 human leukemia cell line; assay: K562 Cell Proliferation Assay (MTS); type: cell-based; settings: K562 cells, 48 hr incubation, MTS cell viability
Procedure: K562 human leukemia cell line purchased from Korean cell line bank (KCLB) and were cultured in Roswell Park Memorial Institute (RPMI) 1640 Medium supplemented with 10% fetal bovine serum (FBS) and 1% penicillin-streptomycin in a humidified incubator in an atmosphere of 5% CO2 at 37° C. Cells were seeded in 96-well plates at a density of 2×10^3 cells/well in 100 […] media. Compounds were diluted as two times concentration in 100 μl of media and added to each well. Compounds were 5-fold serially diluted for 6 points and treated from 5 μM to 1.6 nM in K562 cells. After 48 hr incubation, Compound treated cells were analyzed for anti-proliferation assay. Cell viability was investigated using the Cell Titer 96 Aqueous One Solution Reagent. Briefly, 200 μl of media were supplemented with 40 μl of MTS solution, incubated for 4hr, and then the absorbance was recorded at 490 nm with a 96-well plate reader. G150 values were calculated from a series of percent of cell viability at a range of compound concentration. GraphPad Prism 8 software or SigmaPlot 13.0 was used to generate G150 values.

[2] = biological target: T2, recombinant human c-Kit (D816V) (Homo sapiens, UniProt P10721, D816V); assay: c-Kit (D816V) Kinase Assay (ADP-Glo); type: biochemical; settings: In vitro kinase activity
T2 construct: purchased Signalchem
T2 sequence (P10721 26-976 D816V): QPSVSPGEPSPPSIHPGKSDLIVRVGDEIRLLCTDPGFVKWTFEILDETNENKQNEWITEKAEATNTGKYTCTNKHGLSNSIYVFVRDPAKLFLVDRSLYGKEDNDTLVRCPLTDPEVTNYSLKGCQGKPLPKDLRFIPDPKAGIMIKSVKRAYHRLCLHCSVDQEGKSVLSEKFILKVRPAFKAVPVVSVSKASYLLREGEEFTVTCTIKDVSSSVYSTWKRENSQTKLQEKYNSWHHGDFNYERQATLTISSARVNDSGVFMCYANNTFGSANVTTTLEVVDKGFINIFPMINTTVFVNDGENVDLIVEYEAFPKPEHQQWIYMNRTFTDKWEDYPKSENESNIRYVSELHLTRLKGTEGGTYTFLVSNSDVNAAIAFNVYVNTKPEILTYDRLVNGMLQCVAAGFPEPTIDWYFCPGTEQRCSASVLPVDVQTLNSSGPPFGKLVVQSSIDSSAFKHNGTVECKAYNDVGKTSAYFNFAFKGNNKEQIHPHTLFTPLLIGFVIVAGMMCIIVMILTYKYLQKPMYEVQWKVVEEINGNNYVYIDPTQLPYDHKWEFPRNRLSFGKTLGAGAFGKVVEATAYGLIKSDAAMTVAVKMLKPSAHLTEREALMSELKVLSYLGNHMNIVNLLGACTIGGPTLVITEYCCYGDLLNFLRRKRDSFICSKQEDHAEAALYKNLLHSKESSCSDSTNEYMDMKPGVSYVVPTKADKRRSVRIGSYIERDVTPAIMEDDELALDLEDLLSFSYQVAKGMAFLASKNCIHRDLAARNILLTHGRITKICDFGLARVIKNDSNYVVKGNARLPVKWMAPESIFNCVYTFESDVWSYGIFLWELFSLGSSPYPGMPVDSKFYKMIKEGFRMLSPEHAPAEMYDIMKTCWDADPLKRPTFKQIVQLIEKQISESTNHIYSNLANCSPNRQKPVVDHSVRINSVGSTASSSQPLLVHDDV
Procedure: as §1, with “glycol-bis(β-aminoethyl” for “glycol-bis(8-aminoethyl”, “(EGTA),” for “(EGTA), manganese (II) chloride (MnCl2),”, “c-Kit (D816V)” for “c-Kit”
as §2, with “c-Kit (D816V)” for “c-Kit”, “Promega's ADP-GIoTM” for “Promega's ADP-Glo™”, “assay, 2.5ng” for “assay, 100ng”, “ATP (15” for “ATP (50”, “BSA; 50 μM DTT).” for “BSA; 50μM DTT; 2mM MnCl2).”

[3] = biological target: T3, recombinant human PDGFRα (D842V) (Homo sapiens, UniProt P16234, D842V); assay: PDGFRα (D842V) Kinase Assay (ADP-Glo); type: biochemical; settings: In vitro kinase activity
T3 construct: purchased Signalchem
T3 sequence (P16234 24-1089 D842V): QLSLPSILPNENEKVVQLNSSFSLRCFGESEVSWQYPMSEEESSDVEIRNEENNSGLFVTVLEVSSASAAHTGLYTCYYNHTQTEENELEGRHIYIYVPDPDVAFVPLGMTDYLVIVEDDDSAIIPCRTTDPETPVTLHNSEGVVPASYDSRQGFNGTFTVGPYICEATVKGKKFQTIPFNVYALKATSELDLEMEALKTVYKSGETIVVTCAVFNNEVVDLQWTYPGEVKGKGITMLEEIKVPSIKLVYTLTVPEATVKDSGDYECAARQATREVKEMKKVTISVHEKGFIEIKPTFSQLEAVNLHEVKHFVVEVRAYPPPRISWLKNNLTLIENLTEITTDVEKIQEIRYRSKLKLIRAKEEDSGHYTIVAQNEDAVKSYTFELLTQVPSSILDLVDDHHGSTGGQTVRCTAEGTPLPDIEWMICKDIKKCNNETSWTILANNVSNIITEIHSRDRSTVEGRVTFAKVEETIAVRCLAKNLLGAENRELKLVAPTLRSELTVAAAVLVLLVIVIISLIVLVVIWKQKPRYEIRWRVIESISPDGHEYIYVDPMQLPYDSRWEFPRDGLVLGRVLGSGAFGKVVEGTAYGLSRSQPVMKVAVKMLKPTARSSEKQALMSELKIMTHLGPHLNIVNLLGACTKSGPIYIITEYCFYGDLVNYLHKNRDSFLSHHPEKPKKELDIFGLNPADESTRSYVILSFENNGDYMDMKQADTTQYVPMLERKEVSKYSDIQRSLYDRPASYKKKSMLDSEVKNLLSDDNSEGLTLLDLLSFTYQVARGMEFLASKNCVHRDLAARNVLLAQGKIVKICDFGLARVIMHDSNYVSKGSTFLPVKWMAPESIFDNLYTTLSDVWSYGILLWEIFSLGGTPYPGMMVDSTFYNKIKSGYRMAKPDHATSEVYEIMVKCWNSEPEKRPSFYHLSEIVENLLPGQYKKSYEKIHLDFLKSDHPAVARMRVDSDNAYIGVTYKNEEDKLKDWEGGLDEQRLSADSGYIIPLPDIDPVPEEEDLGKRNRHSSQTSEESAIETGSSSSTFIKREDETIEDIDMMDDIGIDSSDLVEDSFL
Procedure: (§3) ADP-Glo assay kit was purchased from Promega. Magnesium chloride (MgCl2), ethylene glycol-bis(p-aminoethyl ether)-N, N, N′, N′-tetraacetic acid (EGTA), bovine serum albumin (BSA), 1,4-dithiothreitol (DTT) and dimethyl sulfoxide (DMSO) were purchased from Sigma-Aldrich. HEPES buffer was purchased from Gibco. PDGFRα (D842V) Kinase and poly (4:1 Glu, Tyr) peptide were purchased from Signalchem.
as §2, with “PDGFRα (D842V) kinase” for “c-Kit kinase”, “assay, 10 ng” for “assay, 100ng”, “human PDGFRα (D842V)” for “human c-Kit”, “peptide (100” for “peptide (50”, “ATP ([…])” for “ATP (50 μM)”, “BSA; […]).” for “BSA; 50μM DTT; 2mM MnCl2).”

recombinant human PDGFRα = biological target: T4, recombinant human PDGFRα (Homo sapiens, UniProt P16234); assay: PDGFRα Kinase Assay (ADP-Glo); type: biochemical; settings: In vitro kinase activity, read-out: PDGFRa IC50
T4 construct: purchased Signalchem
T4 sequence (P16234 24-1089): as the sequence (P16234 24-1089 D842V) above, with V819D counted along it
Procedure: as §3, with “ether)-N,N,N′,N′-tetraacetic” for “ether)-N, N, N′, N′-tetraacetic”, “PDGFRα” for “PDGFRα (D842V)”
PDGFRα kinase activity was measured by Promega's ADP-Glo™ Assay. In this assay, 40ng of recombinant human PDGFRα is incubated with 5 μL of compounds (0.5% DMSO), 5 μL of Poly (4:1 Glu, Tyr) peptide (100 ng/μl) and 5 μL of ATP ([…]) in buffer (50 mM HEPES, pH7.5; 10 mM MgCl2; 1 mM EGTA; 0.05% BSA; 50 μM DTT). The assay was started by incubating the reaction mixture in a 96-well plate at 30° C. for 60-min. After the incubation, 25 μL ADP-Glo reagent was added and the reaction was incubated at room temperature for 40-min to stop the reaction and degrade residual ATP. The ADP product was then converted to ATP by adding 50 μL per well of detection reagent. Luminescence was detected after 30-min room temperature incubation with the Molecular device I3X plate reader. The IC50 values were calculated from a series of percent inhibition values determined at a range of inhibitor concentration using software routines as implemented in the GraphPad Prism 8 software and Sigma Plot 13.0.

T1 sequence (P10721 26-976): as the sequence (P10721 26-976 D816V) above, with V791D counted along it

SMILES | IC50 (recombinant human c-Kit) | IC50 [1] | IC50 [2] | IC50 [3] | IC50 (recombinant human PDGFRα)
O=C(Nc1cn2cc(-c3cccc(F)c3CO)ccc2n1)[C@@H]1C[C@@H]1F [Example 57, (1 S,2 S)-2-fluoro-N-(6-(3-fluoro-2-(hydroxymethyl)phenyl)imidazo[1,2-a]pyridin-2-yl)cyclopropane-1-carboxamide] | > 1000 nM | 101 to 1000 nM | 101 to 1000 nM | 10 to 100 nM | 101 to 1000 nM
COCc1c(F)cccc1-c1ccc2nc(NC(=O)[C@@H]3C[C@@H]3F)cn2c1 [Example 64, (1 S,2 S)-2-fluoro-N-(6-(3-fluoro-2-(methoxymethyl)phenyl)imidazo[1,2-a]pyridin-2-yl)cyclopropanecarboxamide] | > 1000 nM | – | > 1000 nM | 101 to 1000 nM | > 1000 nM
O=C(Nc1cn2cc(-c3cccc(F)c3-c3ccco3)ccc2n1)[C@@H]1C[C@@H]1F [Example 65, (1 S,2 S)-2-fluoro-N-(6-(3-fluoro-2-(furan-2-yl)phenyl)imidazo[1,2-a]pyridin-2-yl)cyclopropanecarboxamide] | > 1000 nM | – | > 1000 nM | > 1000 nM | > 1000 nM
NCc1c(F)cccc1-c1ccc2nc(NC(=O)[C@@H]3C[C@@H]3F)cn2c1 [Example 74, (1 S,2 S)-N-(6-(2-(aminomethyl)-3-fluorophenyl)imidazo[1,2-a]pyridin-2-yl)-2-fluorocyclopropanecarboxamide] | > 1000 nM | – | > 1000 nM | > 1000 nM | > 1000 nM
O=C(Nc1cn2cc(-c3cccc(F)c3COCCO)ccc2n1)[C@@H]1C[C@@H]1F [Example 83, (1 S,2 S)-2-fluoro-N-(6-(3-fluoro-2-((2-hydroxyethoxy)methyl)phenyl)imidazo[1,2-a]pyridin-2-yl)cyclopropanecarboxamide] | > 1000 nM | – | > 1000 nM | 101 to 1000 nM | 101 to 1000 nM
CC(C)NCc1c(F)cccc1-c1ccc2nc(NC(=O)[C@@H]3C[C@@H]3F)cn2c1 [Example 81, (1 S,2 S)-2-fluoro-N-(6-(3-fluoro-2-((isopropylamino)methyl)phenyl)imidazo[1,2-a]pyridin-2-yl)cyclopropanecarboxamide] | > 1000 nM | – | > 1000 nM | > 1000 nM | > 1000 nM
CC(=O)NCc1c(F)cccc1-c1ccc2nc(NC(=O)[C@@H]3C[C@@H]3F)cn2c1 [Example 75, (1 S,2 S)-N-(6-(2-(acetamidomethyl)-3-fluorophenyl)imidazo[1,2-a]pyridin-2-yl)-2-fluorocyclopropanecarboxamide] | > 1000 nM | – | > 1000 nM | > 1000 nM | > 1000 nM
